Like-named read-outs stand apart in the source and are kept apart here.
Columns and labels:
[1] = biological target: human cannabinoid CB1 receptor (Homo sapiens, UniProt P21554); experiment: biochemical; type: binding; parameters: expressed in transfected cells; host or cells: Chinese hamster ovary (CHO) cells, membrane preparation; conditions: [3H]CP-55,940 radioligand, CHO cell membranes stably transfected with human CB1
Protocol: After incubation of a freshly prepared cell membrane preparation with the [^3H]-ligand, with or without addition of compounds of the invention, separation of bound and free ligand was performed by filtration over glassfiber filters. Radioactivity on the filter was measured by liquid scintillation counting.

human cannabinoid CB1 receptor, sequence (P21554 whole entry): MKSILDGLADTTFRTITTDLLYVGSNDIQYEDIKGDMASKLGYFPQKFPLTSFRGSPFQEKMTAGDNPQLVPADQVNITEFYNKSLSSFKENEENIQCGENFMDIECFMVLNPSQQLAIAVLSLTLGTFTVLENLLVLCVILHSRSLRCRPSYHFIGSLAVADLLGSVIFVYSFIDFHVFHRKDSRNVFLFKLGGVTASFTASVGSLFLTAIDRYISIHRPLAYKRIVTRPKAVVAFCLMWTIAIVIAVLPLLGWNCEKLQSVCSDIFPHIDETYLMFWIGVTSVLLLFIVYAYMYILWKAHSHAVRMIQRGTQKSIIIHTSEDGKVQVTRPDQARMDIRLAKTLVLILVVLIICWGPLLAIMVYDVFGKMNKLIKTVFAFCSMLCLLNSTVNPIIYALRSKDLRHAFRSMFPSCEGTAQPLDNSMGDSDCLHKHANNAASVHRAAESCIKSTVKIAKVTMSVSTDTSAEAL

For `CCc1c(C(=O)NN2CCCCC2)nc(-c2cc(Cl)ccc2Cl)n1-c1ccccc1`, which melting point is on record?
Its melting point is 207 to 208 °C.

Which melting point does the source give for `Cc1cccnc1-c1nc(C(=O)NN2CCCCC2)c(C)n1-c1ccc(Cl)cc1` here?
The melting point was 211 to 213 °C.

For `O=C(NC1CCCCC1)c1cn(-c2cccnc2)c(-c2ccc(Cl)cc2Cl)n1`, which melting point is on record?
The melting point was 195 °C.

For `Cc1c(C(=O)NC2CCCCC2)nc(-c2ccc(Cl)cc2C(F)(F)F)n1-c1ccc(Cl)cc1`, which melting point is on record?
The melting point was 212 °C.

With `COc1cc(Cl)ccc1-c1nc(C(=O)NC2CCCCC2)c(C)n1-c1ccc(Cl)cc1` as the molecule, how does the melting point read?
Its melting point is 201 °C.

For `Cc1c(C(=O)NC2CCCCC2)nc(-c2ccc(Cl)cc2Cl)n1-c1ccc(F)cc1`, which melting point is on record?
Its melting point is 229 to 230 °C.

With `CCc1c(C(=O)NC2CCCCC2)nc(-c2ccc(C)n2C)n1-c1ccccc1` as the molecule, how does the melting point read?
The melting point was 195 to 196 °C.

What does the source list for `COc1cc(Cl)ccc1-c1nc(C(=O)NN2CCCCC2)cn1-c1ccc(Cl)cc1` [Example 28, 1-(4-Chlorophenyl)-2-(2-methoxy-4-chlorophenyl)-N-(piperidin-1-yl)-1H-imidazole-4-carboxamide]?
melting point: 220 °C; Ki ([1]; hCB1 pKi): 63.1 nM

Which results are given for `O=C(NN1CCCCC1)c1cn(-c2ccc(Cl)cc2)c(-c2ccc(Cl)cc2F)n1` [Example 30, 1-(4-Chlorophenyl)-2-(2-fluoro-4-chlorophenyl)-N-(piperidin-1-yl)-1H-imidazole-4-carboxamide]?
melting point: 217 to 218 °C; Ki ([1]; hCB1 pKi): 25.1 nM

What does the source list for `O=C(NN1CCCCC1)c1cn(-c2ccc(F)cc2)c(-c2ccc(Cl)cc2Cl)n1` [Example 31, 2-(2,4-Dichlorophenyl)-1-(4-fluorophenyl)-N-(piperidin-1-yl)-1H-imidazole-4-carboxamide]?
melting point: 175 to 176 °C; Ki ([1]; read-out: hCB1 pKi (converted)): 200 nM

What does the source list for `O=C(NC1CCCCC1)c1cn(-c2ccc(F)cc2)c(-c2ccc(Cl)cc2Cl)n1` [Example 32, N-Cyclohexyl-2-(2,4-dichlorophenyl)-1-(4-fluorophenyl)-1H-imidazole-4-carboxamide]?
melting point: 184 to 185 °C; Ki ([1]; hCB1 pKi): 25.1 nM

Which melting point does the source give for `O=C(NC1CCCCC1)c1cn(-c2ccc(Cl)cc2)c(-c2ccc(Cl)cc2F)n1` [Example 33, N-Cyclohexyl-2-(2-fluoro-4-chlorophenyl)-1-(4-chlorophenyl)-1H-imidazole-4-carboxamide] here?
The melting point was 157 to 159 °C.

And the Ki ([1]; read-out: hCB1 pKi (converted))?
The Ki was 501 nM.

What does the source list for `COc1ccc(-n2cc(C(=O)NN3CCCCC3)nc2-c2ccc(Cl)cc2Cl)cc1` [Example 35, 2-(2,4-Dichlorophenyl)-1-(4-methoxyphenyl)-N-(piperidin-1-yl)-1H-imidazole-4-carboxamide]?
melting point: 178 to 179 °C; Ki ([1]; hCB1 pKi): 50.1 nM

With `O=C(NN1CCCCC1)c1cn(-c2cccnc2)c(-c2ccc(Cl)cc2Cl)n1` [Example 42, 2-(2,4-Dichlorophenyl)-1-(pyridin-3-yl)-N-(piperidin-1-yl)-1H-imidazole-4-carboxamide] as the molecule, how does the melting point read?
The melting point was 165 to 170 °C.

Which melting point does the source give for `Cc1c(C(=O)NC2CCCCC2)nc(-c2ccc(Cl)cc2Cl)n1-c1ccc(C(F)(F)F)cc1` [Example 47, N-Cyclohexyl-2-(2,4-dichlorophenyl)-5-methyl-1-(4-(trifluoromethyl)phenyl)-1H-imidazole-4-carboxamide] here?
The melting point was 178 to 179 °C.

What about the Ki ([1]; read-out: hCB1 pKi (converted)) of the same molecule?
The Ki was 158 nM.

For `COc1ccc(-n2c(-c3ccc(Cl)cc3Cl)nc(C(=O)NC3CCCCC3)c2C)cc1` [Example 49, N-(1-cyclohexyl)-2-(2,4-dichlorophenyl)-5-methyl-1-(4-methoxyphenyl)-1H-imidazole-4-carboxamide], which melting point is on record?
Its melting point is 160 to 161 °C.

And the Ki ([1]; read-out: hCB1 pKi (converted))?
Its Ki is 126 nM.

What does the source list for `Cc1c(C(=O)NCc2ccc(F)cc2)nc(-c2ccc(Cl)cc2Cl)n1-c1ccc(Cl)cn1` [Example 56, 1-(5-Chloropyridin-2-yl)-2-(2,4-dichlorophenyl)-N-(4-fluorobenzyl)-5-methyl-1H-imidazole-4-carboxamide]?
melting point: 123 to 126 °C; Ki ([1]; read-out: hCB1 pKi (converted)): 158 nM

Which results are given for `Cc1c(C(=O)NN2CCCCC2)nc(-c2ccc(Cl)cc2C(F)(F)F)n1-c1ccc(Cl)cc1` [Example 58, 1-(4-Chlorophenyl)-5-methyl-N-(piperidin-1-yl)-2-(2-trifluoromethyl-4-chlorophenyl)-1H-imidazole-4-carboxamide]?
melting point: 165 °C; Ki ([1]; read-out: hCB1 pKi (converted)): 200 nM

What does the source list for `CCCCCNC(=O)c1nc(-c2ccc(Cl)cc2OC)n(-c2ccc(Cl)cc2)c1C` [Example 59, 1-(4-Chlorophenyl)-2-(2-methoxy-4-chlorophenyl)-5-methyl-N-(n-pentyl)-1H-imidazole-4-carboxamide]?
melting point: 131 °C; Ki ([1]; hCB1 pKi): 501 nM

Which melting point does the source give for `Cc1c(C(=O)NN2CCCCC2)nc(-c2ccc(Cl)cc2F)n1-c1ccc(Cl)cc1` [Example 66, 1-(4-Chlorophenyl)-2-(2-fluoro-4-chlorophenyl)-5-methyl-N-(piperidin-1-yl)-1H-imidazole-4-carboxamide] here?
Its melting point is 195 °C.

What about the Ki ([1]; read-out: hCB1 pKi (converted)) of the same molecule?
The Ki was 501 nM.

For `CCCCCNC(=O)c1nc(-c2ccc(Cl)cc2F)n(-c2ccc(Cl)cc2)c1C` [Example 67, 1-(4-Chlorophenyl)-2-(2-fluoro-4-chlorophenyl)-5-methyl-N-(n-pentyl)-1H-imidazole-4-carboxamide], which melting point is on record?
The melting point was 115 °C.

What about the Ki ([1]; hCB1 pKi) of the same molecule?
Its Ki is 398 nM.

Which results are given for `Cc1c(C(=O)NC2CCCCC2)nc(-c2ccc(Cl)cc2F)n1-c1ccc(Cl)cc1` [Example 68, 1-(4-Chlorophenyl)-N-(cyclohexyl)-2-(2-fluoro-4-chlorophenyl)-5-methyl-1H-imidazole-4-carboxamide]?
melting point: 188 °C; Ki ([1]; hCB1 pKi): 200 nM

Which melting point does the source give for `Cc1ccc(-c2nc(C(=O)NC3CCCCC3)c(C)n2-c2ccc(Cl)cc2)n1C` [Example 69, 1-(4-Chlorophenyl)-N-(cyclohexyl)-2-(1,5-dimethyl-1H-pyrrol-2-yl)-5-methyl-1H-imidazole-4-carboxamide] here?
The melting point was 188 to 189 °C.

And the Ki ([1]; hCB1 pKi)?
Its Ki is 39.8 nM.

With `Cc1ccc(-c2nc(C(=O)NN3CCCCC3)c(C)n2-c2ccc(Cl)cc2)n1C` [Example 70, 1-(4-Chlorophenyl)-2-(1,5-dimethyl-1H-pyrrol-2-yl)-5-methyl-N-(piperidin-1-yl)-1H-imidazole-4-carboxamide] as the molecule, how does the melting point read?
Its melting point is 208 to 210 °C.

And the Ki ([1]; hCB1 pKi)?
The Ki was 5.01 nM.

Which results are given for `Cc1c(C(=O)NN2CCCCC2)nc(-c2ccccc2Cl)n1-c1cccc(F)c1` [Example 71, 2-(2-Chlorophenyl)-1-(3-fluorophenyl)-5-methyl-N-(piperidin-1-yl)-1H-imidazole-4-carboxamide]?
melting point: 236 to 238 °C; Ki ([1]; hCB1 pKi): 39.8 nM

With `Cc1c(C(=O)NC2CCCCC2)nc(-c2ccccc2Cl)n1-c1cccc(F)c1` [Example 73, 2-(2-Chlorophenyl)-N-cyclohexyl-1-(3-fluorophenyl)-5-methyl-1H-imidazole-4-carboxamide] as the molecule, how does the melting point read?
The melting point was 180 to 182.5 °C.

What about the Ki ([1]; hCB1 pKi) of the same molecule?
The Ki was 12.6 nM.

Which melting point does the source give for `Cc1c(C(=O)NCCc2ccc(F)cc2)nc(-c2ccccc2Cl)n1-c1cccc(F)c1` [Example 74, 2-(2-Chlorophenyl)-1-(3-fluorophenyl)-N-(2-(4-fluorophenyl)ethyl)-5-methyl-1H-imidazole-4-carboxamide] here?
The melting point was 123.5 to 126 °C.

What about the Ki ([1]; read-out: hCB1 pKi (converted)) of the same molecule?
The Ki was 398 nM.

Which results are given for `CCc1c(C(=O)NN2CCCCC2)nc(-c2ccc(Cl)cc2Cl)n1-c1ccc(Cl)cn1` [Example 75, 1-(5-Chloropyridin-2-yl)-2-(2,4-dichlorophenyl)-5-ethyl-N-(piperidin-1-yl)-1H-imidazole-4-carboxamide]?
melting point: 146 °C; Ki ([1]; hCB1 pKi): 100 nM

Which melting point does the source give for `CCc1c(C(=O)NN2CCOCC2)nc(-c2ccc(Cl)cc2Cl)n1-c1ccc(Cl)cn1` [Example 76, 1-(5-Chloropyridin-2-yl)-2-(2,4-dichlorophenyl)-5-ethyl-N-(4-morpholinyl)-1H-imidazole-4-carboxamide] here?
Its melting point is 223 °C.

And the Ki ([1]; read-out: hCB1 pKi (converted))?
Its Ki is 251 nM.

Which results are given for `CCc1c(C(=O)NN2CCCCCC2)nc(-c2ccc(Cl)cc2Cl)n1-c1ccc(Cl)cn1` [Example 77, N-(1-Azepanyl)-1-(5-Chloropyridin-2-yl)-2-(2,4-dichlorophenyl)-5-ethyl-1H-imidazole-4-carboxamide]?
melting point: 177 °C; Ki ([1]; hCB1 pKi): 31.6 nM

What does the source list for `CCc1c(C(=O)NC2CCCCC2)nc(-c2ccc(Cl)cc2Cl)n1-c1ccc(Cl)cn1` [Example 78, 1-(5-Chloropyridin-2-yl)-N-cyclohexyl-2-(2,4-dichlorophenyl)-5-ethyl-1H-imidazole-4-carboxamide]?
melting point: 149 °C; Ki ([1]; hCB1 pKi): 3.16 nM

Which results are given for `Cc1c(C(=O)Nc2ccccc2)nc(-c2ccc(Cl)cc2Cl)n1-c1ccc(Cl)cc1` [Example 82, 1-(4-Chlorophenyl)-2-(2,4-dichlorophenyl)-5-methyl-N-phenyl-1H-imidazole-4-carboxamide]?
melting point: 91 to 95 °C; Ki ([1]; hCB1 pKi): 2.51 nM

For `Cc1c(C(=O)NOC2CCCCO2)nc(-c2ccc(Cl)cc2Cl)n1-c1ccc(Cl)cc1` (stereo not shown) [Example 83, 1-(4-Chlorophenyl)-2-(2,4-dichlorophenyl)-5-methyl-N-(tetrahydro-2H-pyran-2-yloxy)-1H-imidazole-4-carboxamide], which melting point is on record?
The melting point was 128 to 133 °C.

What about the Ki ([1]; hCB1 pKi) of the same molecule?
The Ki was 3.98 nM.

With `Cc1c(C(=O)C2NCCc3ccccc32)nc(-c2ccc(Cl)cc2Cl)n1-c1ccc(Cl)cc1` (stereo not shown) [Example 88, 1-{[1-(4-Chlorophenyl)-2-(2,4-dichlorophenyl)-5-methyl-1H-imidazol-4-yl]carbonyl}-1,2,3,4-tetrahydroisoquinoline] as the molecule, how does the melting point read?
Its melting point is 143 to 146 °C.

Which melting point does the source give for `CCc1c(C(=O)NC2CCCCC2)nc(-c2ccc(Cl)cc2Cl)n1-c1cc(F)ccc1F` [Example 97, N-Cyclohexyl-2-(2,4-dichlorophenyl)-1-(2,5-difluorophenyl)-5-ethyl-1H-imidazole-4-carboxamide] here?
The melting point was 144 to 146 °C.

Which melting point does the source give for `Cc1c(C(=O)NC2CCCCC2)nc(-c2ccc(Cl)cc2Cl)n1-c1cc(F)ccc1F` [Example 98, N-Cyclohexyl-2-(2,4-dichlorophenyl)-1-(2,5-difluorophenyl)-5-methyl-1H-imidazole-4-carboxamide] here?
The melting point was 206 to 208 °C.

— US7109216B2 (priority 2001, dated 2006)
